“Also recorded” adds a separate entry of the source. Marks after values point to notes of the source that are not given here.
Legend:
human sebaceous glands [1] = assay: Resazurin viability test of micro-dissected human sebaceous glands, day 6 versus day 1; format: cell-based
Procedure: To better understand the response to the extract, a viability test was performed in parallel at day 1 and day 6 of organ culture. Resazurin was added to the wells (1:11) and let incubate for 2 hours. At the end of the incubation an aliquot of the medium was read with a fluorometer (excitation: 560 nm, emission: 590 nm). The medium was then replaced with normal medium for 2 hours in order to eliminate residual resazurin. After this the medium was replaced again with medium containing the test samples. The viability in each well was measured as the difference in percentage between day 6 and day 1.

human sebaceous glands [2] = assay: Total lipid (sebum) content of micro-dissected ex vivo human sebaceous glands in organ culture, lipids normalized on proteins; format: cell-based; conditions: for Effect on total lipid / sebum content of sebaceous glands, in words: day 6; for Reduction of lipids at day 6 versus untreated; Lipid reduction: Example 8; for Reduction of lipids at day 6 versus untreated; Total lipid reduction: Example 4
Procedure: Organ culture of human sebaceous glands micro-dissected from human skin explants was performed to evaluate the modulatory activity of Tetraselmis suecica extract prepared according to the description given in Example 1 on the sebum level. The extract is employed in the dried form.
After removal of the epidermis of the full thickness skin sample, the sebaceous glands were carefully removed using micro-scissors and scalpel. The micro-dissected sebaceous glands were then pooled in groups of 8 and cultured up to day 6 in a 24 well plate immersed in 500 μl of modified Williams'E medium. After 24 hours of acclimation the culture medium was changed and substituted with the medium containing the extract to be tested. The medium was renewed at day 3 and 5 of culture. At day 6 the glands were collected and used for the quantification of lipids and proteins.
To do so, each sebaceous glands group was homogenized in 100 μl of isopropyl alcohol to extract lipids and let the proteins undissolved. After centrifugation the supernatant containing the extracted sebum was collected and analyzed. The remaining pellet was dried using a vacuum dry evaporator and then minced in presence of 50 μl of protein lysis buffer. After an appropriate incubation time, this extractive mixture was centrifuged, and the supernatant was collected and analyzed. The lipids dissolved in isopropyl alcohol and the proteins dissolved in the lysis buffer were quantified by infrared spectroscopy using a Direct Detect IR Spectrometer (Millipore). The total lipid amount was obtained by normalizing the quantified lipids upon the quantified proteins (i.e. mg of lipids/mg of proteins). The amounts of normalized lipids, i.e. the sebum produced by each group of sebaceous glands, obtained from the treated groups was compared to that of the untreated control group and the modulatory activity was calculated in percentage. As positive control, a 5 μM Capsaicin treatment was included in the experimental design. Capsaicin is an active component of chili peppers suitable to inhibit sebogenesis [T6th et al., J. Invest. Derm. (2009), 129: 329-339]. For statistical analysis, differences among groups were evaluated by one-way anova with permutation test followed by Dunnett's permutation test.
To evaluate donor responsiveness and interindividual variability the extract was tested on sebaceous glands obtained from skin samples of three different donors.
The Organ culture of human sebaceous glands micro-dissected from human skin explants was performed to evaluate the modulatory activity of mannitol on the sebum level.
After removal of the epidermis of the full thickness skin sample, the sebaceous glands were carefully removed using micro-scissors and scalpel. The micro-dissected sebaceous glands were then pooled in groups of 8 and cultured up to day 6 in a 24 well plate immersed in 500 μl of modified Williams'E medium. After 24 hours of acclimation the culture medium was changed and substituted with the medium containing the sample to be tested. The medium was renewed at day 3 and 5 of culture. At day 6 the glands were collected and used for the quantification of lipids and proteins.
To do so, each sebaceous glands group was homogenized in 100 μl of isopropyl alcohol to extract lipids and let the proteins undissolved. After centrifugation the supernatant containing the extracted sebum was collected and analyzed. The remaining pellet was dried using a vacuum dry evaporator and then minced in presence of 50 μl of protein lysis buffer. After an appropriate incubation time, this extractive mixture was centrifuged, and the supernatant was collected and analyzed. The lipids dissolved in isopropyl alcohol and the proteins dissolved in the lysis buffer were quantified by infrared spectroscopy using a Direct Detect IR Spectrometer (Millipore). The total lipid amount was obtained by normalizing the quantified lipids upon the quantified proteins (i.e. mg of lipids/mg of proteins). […]

[3] = Water solubility (statement); format: physicochemical
CLDN7 [Claudin 7] = assay: Gene expression by RT-qPCR in nHEK keratinocytes; format: cell-based, human
Procedure: Neonatale humane epidermal keratinocytes (nHEK) were cultivated in EpiLife medium (Gibco) including HKGS-Kit (Gibco) at 5% CO2 at 37° C. according to the supplier instructions. […] Genomic target expression levels in extract treated cells were measured by RT-qPCR comparing to medium treatment. RNA isolation took place using RNeasy® Mini Kit, Qiagen. Total RNA concentrations were measured using μCuvetteG 1.0 and BioPhotometer, Eppendorf by measuring the absorption at 260 nm. Purity control values, like […]/280 and E 260/230 were calculated simultaneously. Reverse transcription was done using high capacity RNA-to-cDNA Kit, Applied Biosystems, according to the supplier instructions. Samples were treated in the PCR Thermocycler, Biometra. For the fast real-time PCR, cDNA was diluted with RNase-free water and TaqManTM Fast Universal PCR Master Mix, Applied biosystems. Quantitaive Real-Time PCR was done using StepOne Plus Fast Real Time PCR Instrument, Applied biosystems. Analysis was done with StepOne-Software and 2-ΔCT Method (normalized to endogenous control HTRP1 expression).

OCLN [Occludin] = assay: Gene expression by RT-qPCR in nHEK keratinocytes; format: cell-based, human; conditions: 0.002%
Procedure: (§1) Neonatale humane epidermal keratinocytes (nHEK) were cultivated in EpiLife medium (Gibco) including HKGS-Kit (Gibco) at 5% CO2 at 37° C. according to the supplier instructions.
(§2) […] Genomic target expression levels in extract treated cells were measured by RT-qPCR comparing to medium treatment.
(§3) RNA isolation took place using RNeasy® Mini Kit, Qiagen. Total RNA concentrations were measured using μCuvetteG 1.0 and BioPhotometer, Eppendorf by measuring the absorption at 260 nm. Purity control values, like E260/280 and E 260/230 were calculated simultaneously. Reverse transcription was done using high capacity RNA-to-cDNA Kit, Applied Biosystems, according to the supplier instructions. Samples were treated in the PCR Thermocycler, Biometra.
(§4) For the fast real-time PCR, cDNA was diluted with RNase-free water and TaqMan™ Fast Universal PCR Master Mix, Applied biosystems. Quantitaive Real-Time PCR was done using StepOne Plus Fast Real Time PCR Instrument, Applied biosystems. Analysis was done with StepOne-Software and 2-ΔCT Method (normalized to endogenous control HTRP1 expression).
(§5) For upregulations RQ values ≥2.0 and for downregulations RQ values <0.5 are considered to be relevant.

CGN [Cingulin] = assay: Gene expression by RT-qPCR in nHEK keratinocytes; format: cell-based, human; conditions: 0.002%
Procedure: as §1, §2, §3, §4, §5

CLDN1 [Claudin 1] = assay: Gene expression by RT-qPCR in nHEK keratinocytes; format: cell-based, human; conditions: 0.002%
Procedure: as §1, §2, §3, §4, §5

## OC[C@@H](O)[C@H](O)[C@@H](O)CO [xylitol, Xylitol]
Human sebaceous glands [1]; Example 6, 0.05 ppm
  Viability: 86%
Human sebaceous glands [1]; Example 6, 0.5 ppm
  Viability: 80%
Human sebaceous glands [2]; Example 6, 0.05 ppm
  Reduction of lipids at day 6 versus untreated: −23%
Human sebaceous glands [2]; Example 6, 0.5 ppm
  Reduction of lipids at day 6 versus untreated: −46%
Human sebaceous glands [2]; ex vivo human sebaceous glands
  Effect on total lipid / sebum content of sebaceous glands, in words: significantly reduces the lipid content

## OC[C@@H](O)[C@@H](O)[C@H](O)[C@@H](O)CO [sorbitol, D-Sorbitol]
Human sebaceous glands [1]; Example 6, 0.05 ppm
  Viability: 80%
Human sebaceous glands [1]; Example 6, 0.5 ppm
  Viability: 78%
Human sebaceous glands [1]; Example 8, 0.5 ppm
  Viability: 95%
Human sebaceous glands [2]; Example 6, 0.05 ppm
  Reduction of lipids at day 6 versus untreated: −16%
Human sebaceous glands [2]; Example 6, 0.5 ppm
  Reduction of lipids at day 6 versus untreated: −40%
Human sebaceous glands [2]; 0.5 ppm
  Reduction of lipids at day 6 versus untreated; Lipid reduction: 11* %
Human sebaceous glands [2]; ex vivo human sebaceous glands
  Effect on total lipid / sebum content of sebaceous glands, in words: significantly reduces the lipid content
Human sebaceous glands [2]; ex vivo human sebaceous glands, listed as Sorbitol
  Effect on total lipid / sebum content of sebaceous glands, in words: exhibited efficacy in the expected range when compared to capsaicin

## O[C@H]1[C@H](O)[C@@H](O)[C@H](O)[C@@H](O)[C@H]1O [inositol, myo-Inosiitol]
Human sebaceous glands [1]; Example 7, 0.05 ppm
  Viability: 91%
Human sebaceous glands [1]; Example 7, 0.5 ppm
  Viability: 97%
Human sebaceous glands [2]; Example 7, 0.05 ppm
  Reduction of lipids at day 6 versus untreated: −32%
Human sebaceous glands [2]; Example 7, 0.5 ppm
  Reduction of lipids at day 6 versus untreated: −10%
Human sebaceous glands [2]; ex vivo human sebaceous glands
  Effect on total lipid / sebum content of sebaceous glands, in words: significantly reduce the lipid content

## OC[C@@H](O)[C@@H](O[C@H]1O[C@H](CO)[C@@H](O)[C@H](O)[C@H]1O)[C@H](O)[C@@H](O)CO [maltitol, Maltitol]
Human sebaceous glands [1]; Example 7, 0.05 ppm
  Viability: 79%
Human sebaceous glands [1]; Example 7, 0.5 ppm
  Viability: 80%
Human sebaceous glands [2]; Example 7, 0.05 ppm
  Reduction of lipids at day 6 versus untreated: −44%
Human sebaceous glands [2]; Example 7, 0.5 ppm
  Reduction of lipids at day 6 versus untreated: −39%
Human sebaceous glands [2]; ex vivo human sebaceous glands
  Effect on total lipid / sebum content of sebaceous glands, in words: significantly reduce the lipid content

## OC[C@@H](O)[C@@H](O)CO [erythritol, meso-Erythritol]
Human sebaceous glands [1]; Example 6, 0.05 ppm
  Viability: 82%
Human sebaceous glands [1]; Example 6, 0.5 ppm
  Viability: 77%
Human sebaceous glands [2]; Example 6, 0.05 ppm
  Reduction of lipids at day 6 versus untreated: −26%
Human sebaceous glands [2]; Example 6, 0.5 ppm
  Reduction of lipids at day 6 versus untreated: −36%
Human sebaceous glands [2]; ex vivo human sebaceous glands
  Effect on total lipid / sebum content of sebaceous glands, in words: significantly reduces the lipid content

## NC(=O)c1cccnc1 [niacinamide, Niacinamide, reference compound]
Human sebaceous glands [1]; Example 8, 0.5 ppm
  Viability: 100%
Human sebaceous glands [2]; 0.5 ppm
  Reduction of lipids at day 6 versus untreated; Lipid reduction: 2%
Human sebaceous glands [2]; ex vivo human sebaceous glands
  Effect on total lipid / sebum content of sebaceous glands, in words: did not show a relevant lipid reducing activity
[3]
  water solubility, in words: readily water soluble

## OC[C@@H](O)[C@@H](O)[C@H](O)[C@H](O)CO [mannitol, Mannitol]
Human sebaceous glands [1]; Example 4, 0.03 ppm
  Viability: 81%
CLDN7 [Claudin 7]
  claudin 7 gene regulation, in words: upregulate
CLDN7 [Claudin 7]; 0.002%
  RQ value: 2.0
OCLN [Occludin]
  RQ value: 1.0
CGN [Cingulin]
  RQ value: 1.0
CLDN1 [Claudin 1]
  RQ value: 0.5
Human sebaceous glands [2]; 0.03 ppm
  Reduction of lipids at day 6 versus untreated; Total lipid reduction: −17%
Human sebaceous glands [2]; ex vivo human sebaceous glands
  Sebum/lipid reducing efficacy compared with positive control 5 μM capsaicin, in words: less effectively than 5 μM capsaicin
  Effect on total lipid / sebum content of sebaceous glands, in words: significantly reduces the lipid content; also recorded: significantly reduced the sebum content

## OC[C@@H](O)[C@@H](O[C@@H]1O[C@H](CO)[C@H](O)[C@H](O)[C@H]1O)[C@H](O)[C@@H](O)CO [lactitol, Lactitol]
Human sebaceous glands [1]; Example 7, 0.05 ppm
  Viability: 99%
Human sebaceous glands [1]; Example 7, 0.5 ppm
  Viability: 100%
Human sebaceous glands [2]; Example 7, 0.05 ppm
  Reduction of lipids at day 6 versus untreated: −22%
Human sebaceous glands [2]; Example 7, 0.5 ppm
  Reduction of lipids at day 6 versus untreated: −22%
Human sebaceous glands [2]; ex vivo human sebaceous glands
  Effect on total lipid / sebum content of sebaceous glands, in words: significantly reduce the lipid content

## OC[C@@H](O)[C@H](O)CO [threitol, D-Threitol]
Human sebaceous glands [1]; Example 7, 0.05 ppm
  Viability: 84%
Human sebaceous glands [1]; Example 7, 0.5 ppm
  Viability: 82%
Human sebaceous glands [2]; Example 7, 0.05 ppm
  Reduction of lipids at day 6 versus untreated: −31%
Human sebaceous glands [2]; Example 7, 0.5 ppm
  Reduction of lipids at day 6 versus untreated: −47%
Human sebaceous glands [2]; ex vivo human sebaceous glands
  Effect on total lipid / sebum content of sebaceous glands, in words: significantly reduce the lipid content

## COc1cc(CNC(=O)CCCC/C=C/C(C)C)ccc1O [Capsaicin, reference compound]
Human sebaceous glands [1]; Example 3, Donor 1, 5 μM (1.5 ppm)
  Viability: 92%
Human sebaceous glands [1]; Example 3, Donor 2, 5 μM (1.5 ppm)
  Viability: 99%
Human sebaceous glands [1]; Example 3, Donor 3, 5 μM (1.5 ppm)
  Viability: 85%
Human sebaceous glands [1]; Example 4, 5 μM (1.5 ppm)
  Viability: 82%
Human sebaceous glands [1]; Example 6, 5 μM (1.5 ppm)
  Viability: 89%
Human sebaceous glands [1]; Example 7, 5 μM (1.5 ppm)
  Viability: 91%
Human sebaceous glands [1]; Example 8, 5 μM (1.5 ppm)
  Viability: 95%
Human sebaceous glands [2]; 5 μM (1.5 ppm)
  Reduction of lipids at day 6 versus untreated; Total lipid reduction: −25%
  Reduction of lipids at day 6 versus untreated; Lipid reduction: 13* %
Human sebaceous glands [2]; Example 6, 5 μM (1.5 ppm)
  Reduction of lipids at day 6 versus untreated: −21%
Human sebaceous glands [2]; Example 7, 5 μM (1.5 ppm)
  Reduction of lipids at day 6 versus untreated: −20%

Reference: US11786570B2, “Dermatological product” (SYMRISE AG, priority 2018, dated 2023)
